The text below walks through data of patent US6541509B2 (priority 2000, dated 2003).

The structures appear in SMILES notation. Where two headings read alike, the source gives them in different places.

The subject of one experiment is J7-T3-1.6. Kind of experiment: cells. The experiment is classed as cell-based, mouse. To be noted: for IC50: J7-T3-1.6, 72 h, mean ± SE, read-out: IC50 (drug concentration that inhibits cell division by 50%); for Fold resistance (ratio of IC50 J7-T3-1.6 to J774.2): after 72 h. On the procedure:
(§1) The drug-sensitive mouse macrophage-like cell line, J774.2, and its Taxol-resistant cell line, J7-T3-1.6, were maintained as previously described. […] Drug-sensitive and vinblastine-resistant human ovarian carcinoma cell lines, SKOV3 and SKVLB, were obtained from Dr. V. Ling, and were maintained as previously described. Both J7-T3-1.6 and SKVLB cells overexpress P-glycoprotein. SKVLB cells were grown in the presence of 1 μM vinblastine. The Taxol-resistant human non-small-cell lung carcinoma cell line, A549-T12, was derived from the drug-sensitive A549 cell line; both cell lines were maintained as previously described.
(§2) For the A549 cell lines, cells were seeded at a density of 1×10^4 cells/mL (A549) or 3×10^4 cells/mL (A549-T12), in triplicate, 6-well plates, and allowed to attach for 24 h. […] The SKOV3 and SKVLB cell lines were assayed in a similar manner. Cells were seeded in triplicate, at a density of 6×10^3 cells/mL (SKOV3) or 12×10^3 cells/mL (SKVLB), in 6-well plates, and incubated with a drug for 6 days. […] J774.2 and J7-T3-1.6 cells were plated at a density of 2×10^4 cells/well, in 96-well plates, and allowed to attach overnight. Serial dilutions of each drug were performed, and the cells were incubated for 72 h. The IC50 was determined using the CellTiter 96™ AQueous nonradioactive cell proliferation assay (Promega, Madison, Wis.), which correlates with the number of live cells. Different methods for determining IC50 values were used, depending on the most accurate method for each particular set of cell lines.

The next experiment concerns J774.2. Put plainly: cells. The format is cell-based, mouse. As to conditions: J774.2, 72 h, mean ± SE; for IC50: read-out: IC50 (drug concentration that inhibits cell division by 50%). The protocol:
as §1, §2

The next experiment relates to A549-T12. Kind of experiment: cells. The experiment is classed as cell-based, human. To be noted: for IC50: read-out: IC50 (drug concentration that inhibits cell division by 50%). The protocol: as §1, §2
The subject of a further experiment is A549. Put plainly: cells. The experiment is classed as cell-based, human. To be noted: for IC50: read-out: IC50 (drug concentration that inhibits cell division by 50%). On the procedure: as §1, §2
For a further experiment, the system named is SKOV3. Kind of experiment: cells. The format is cell-based, human. As to conditions: SKOV3, 6 days, mean ± SE; for IC50: read-out: IC50 (drug concentration that inhibits cell division by 50%). On the procedure:
as §1, §2

The next experiment relates to SKVLB. Kind of experiment: cells. The experiment is classed as cell-based, human. As to conditions: for IC50: SKVLB, 6 days, mean ± SE, read-out: IC50 (drug concentration that inhibits cell division by 50%); for Fold resistance (ratio of IC50, SKVLB and SKOV3): after 6 days. On the procedure:
as §1, §2

In experiment [1] the test system is A549-T12 cells. The experiment is classed as cell-based, human. As to conditions: 48 h; concentrations as in FIG. 4. The protocol:
A549-T12 cells were grown on cover slips and treated with the different compounds for 48 h. Cells were then permeabilized, fixed, and incubated with an α-tubulin antibody, as described below.
A549-T12 cells, which were grown to subconfluency on glass cover slips in the absence of drug or in the presence of different drugs at varying concentrations (FIG. 4), were prepared for immunofluorescence microscopy as previously described, with the following modifications: (a) nonspecific binding was blocked using 10% normal goat serum in PBS for 30 min at 37° C.; (b) cells were incubated with a monoclonal antibody to α-tubulin (Sigma; 1:100 dilution; 5% normal goat serum in PBS), followed by a Cy3-conjugated anti-mouse IgG secondary antibody (Amersham, Arlington Heights, Ill.; 1:1000 dilution); and (c) slides were analyzed using the Zeiss Axioskop microscope (rhodamine filter) at 63× magnification.

The test system of experiment [2] is A549-T12 cells. The experiment is classed as cell-based, human. To be noted: for Cell-cycle profile: 48 h, 2 nM Taxol, discodermolide 2 or 6 nM, other drugs as in FIG. 5; for Reversal of the G2-M-phase block induced by Taxol removal: 48 h without Taxol, then 48 h with drug, discodermolide 0.001-24.0 nM, data not shown. On the procedure:
Cells were incubated with the different agents for 48 h, fixed, stained with propidium iodide, and analyzed by flow cytometry, as described below.
For the drug substitution experiments, A549-T12 cells were seeded at a density of 3×10^4 cells/mL in 75-cm^2 flasks, and treated with various drugs at the indicated concentrations (FIG. 5). After 48 h, both adherent and nonadherent cells were harvested, fixed in 70% ethanol for at least 20 min, permeabilized with 0.1% Triton X-100 in PBS for 3 min, and stained for 30 min at 37° C. with 10 μg/mL of propidium iodide (Sigma) in a PBS solution containing 1 μg/mL of RNase A (Boehringer Mannheim, Indianapolis, Ind.). Cell-cycle analysis was performed using the Becton Dickinson FACScan and the CellQuest program. […] The cells then were prepared as described above.

For another experiment, the system named is microtubules. Put plainly: In vitro microtubule polymerization assay. The format is biochemical. As to conditions: in the absence of GTP.
Setting [3] is: Homo sapiens, Ovarian carcinoma cell, 144 h.
[4] abbreviates: A549-T12, 72 h, cells maintained in 2 nM Taxol, mean ± SE.

For the compound `CO[C@]12C=C[C@](C)(O1)[C@@H](OC(=O)/C=C/c1cn(C)cn1)C[C@H]1C(C)=CC[C@H](C(C)C)[C@H]1/C=C\2CO[C@@H]1OC[C@@H](O)[C@@H](O)[C@@H]1OC(C)=O` [Eleu, eleutherobin], the IC50 in the experiment with J7-T3-1.6 (Mus musculus) is greater than 5000 nM; with J774.2 (Mus musculus), 394 ± 5.8 nM; in the experiment on A549-T12 (Homo sapiens, 72 h), 69 ± 11.3 nM; with A549 (Homo sapiens, A549, 72 h), 14 ± 2.8 nM; in the experiment on SKOV3 (Homo sapiens, SK-OV-3, 144 h), 8.2 ± 3.8 nM; in the experiment on SKVLB (setting [3]) it was greater than 5000 nM. Besides, the “Fold resistance (ratio of IC50 J7-T3-1.6 to J774.2)” value in the experiment on J7-T3-1.6 is given as greater than 12.7 fold. The “IC50 (drug concentration that inhibits cell division by 50%)” value is “quite insensitive” in the experiment on J774.2, “comparable activities” in the experiment with A549 and “decreased but similar responses” with SKOV3. Further, the figures for the “Fold resistance (ratio of IC50, SKVLB and SKOV3)” value in the experiment with SKVLB and with SKVLB (listed as eleutherobin) were greater than 609.8 fold and “definite cross-resistance”, respectively. In addition, the “Microtubule cytoskeleton / ability to substitute for Taxol” value (shortened to “Microtubule cytoskeleton / ability”) in the experiment with A549-T12 cells [1] is “normal microtubule cytoskeleton”. For the same compound, the Cell-cycle profile result in the experiment with A549-T12 cells [2] was “normal cell-cycle profile”. Moreover, the “Reversal of the G2-M-phase block induced by Taxol removal” value (shortened to “Reversal”) in the experiment with A549-T12 cells [2] is recorded as “return of a normal cell-cycle profile”. For the same compound, in the experiment on microtubules, the Assembly of microtubules result was “enhanced the assembly of stable microtubules”.
With `C/C(=C\c1csc(C)n1)[C@@H]1C[C@@H]2O[C@@H]2CCC[C@H](C)[C@H](O)[C@@H](C)C(=O)C(C)(C)[C@@H](O)CC(=O)O1` [EpoA, epothilone A], the IC50 in the experiment with J7-T3-1.6 came out at 170 ± 14 nM; in the experiment on J774.2, 10.6 ± 2 nM; in the experiment on A549-T12 (setting [4]), 34 ± 3.1 nM; in the experiment on A549 (A549, 72 h, mean ± SE), 6.4 ± 2 nM; in the experiment on SKOV3, 10.3 ± 4.5 nM; in the experiment on SKVLB, 190 ± 14 nM. The “Fold resistance (ratio of IC50 J7-T3-1.6 to J774.2)” value in the experiment on J7-T3-1.6 is reported as 16 fold; in the experiment on J7-T3-1.6 (listed as epothilone A) it was “low resistance”. The “Fold resistance (ratio of IC50 A549-T12 to A549)” value with A549-T12 (72 h) was 5.3 fold; in the experiment on A549-T12 (72 h, listed as epothilone A) it was “cross-resistance”. The “IC50 (drug concentration that inhibits cell division by 50%)” value in the experiment on A549 (A549, 72 h, mean ± SE) is on record as “comparable activities”; in the experiment with SKOV3 it was “decreased but similar responses”. In addition, the “Fold resistance (ratio of IC50, SKVLB and SKOV3)” value in the experiment on SKVLB is 18.5 fold; with SKVLB (listed as epothilone A), “low-level cross-resistance”. Besides, in the experiment on A549-T12 cells [1], the “Microtubule cytoskeleton / ability” value was “normal microtubule cytoskeleton”. In addition, the Cell-cycle profile result in the experiment with A549-T12 cells [2] is on record as “normal cell-cycle profile”. For the same compound, in the experiment on A549-T12 cells [2], the “Reversal” value is on record as “return of a normal cell-cycle profile”.
For `C/C(=C\c1csc(C)n1)[C@@H]1C[C@@H]2O[C@]2(C)CCC[C@H](C)[C@H](O)[C@@H](C)C(=O)C(C)(C)[C@@H](O)CC(=O)O1` [EpoB, epothilone B], the IC50 in the experiment on J7-T3-1.6 was determined as 12 ± 4 nM; in the experiment on J774.2, 0.4 ± 0.1 nM; in the experiment with A549-T12 (setting [4]) it was 3.3 ± 0.72 nM; with A549 (A549, 72 h, mean ± SE), 0.7 ± 0.1 nM; with SKOV3, 0.5 ± 0.09 nM; in the experiment with SKVLB it was 9.5 ± 2.1 nM. Further, the results for the “Fold resistance (ratio of IC50 J7-T3-1.6 to J774.2)” value with J7-T3-1.6 and in the experiment on J7-T3-1.6 (listed as epothilone B) were 30 fold and “low resistance”, respectively. Also, the “IC50 (drug concentration that inhibits cell division by 50%)” value in the experiment on J774.2 is recorded as “most sensitive”; in the experiment with A549 (A549, 72 h, mean ± SE) it was “more potent”; with SKOV3, “highest sensitivity”. Also, the “Fold resistance (ratio of IC50 A549-T12 to A549)” value was 4.7 fold in the experiment with A549-T12 (72 h) and “cross-resistance” in the experiment with A549-T12 (72 h, listed as epothilone B). Moreover, the results for the “Fold resistance (ratio of IC50, SKVLB and SKOV3)” value in the experiment with SKVLB and in the experiment with SKVLB (listed as epothilone B) were 19.0 fold and “low-level cross-resistance”, respectively. For the same compound, the “Microtubule cytoskeleton / ability” value with A549-T12 cells [1] was “normal microtubule cytoskeleton”. Moreover, in the experiment with A549-T12 cells [2], the Cell-cycle profile entry was “normal cell-cycle profile”. In the experiment with A549-T12 cells [2], the “Reversal” value was “return of a normal cell-cycle profile”.
`CC[C@]1(O)C[C@@H]2CN(CCc3c([nH]c4ccccc34)[C@@](C(=O)OC)(c3cc4c(cc3OC)N(C)[C@H]3[C@@](O)(C(=O)OC)[C@H](OC(C)=O)[C@]5(CC)C=CCN6CC[C@]43[C@@H]65)C2)C1` [VBL, vinblastine]: the IC50 was 767 ± 351 nM in the experiment with J7-T3-1.6 (Mus musculus); 6 ± 2.7 nM in the experiment on J774.2 (Mus musculus); 1.8 ± 0.18 nM in the experiment on A549-T12 (Homo sapiens, A549-T12, 72 h, cells maintained in 2 nM Taxol, mean ± SE); 1.8 nM in the experiment with A549 (Homo sapiens, A549, 72 h, mean ± SE); 1.1 ± 0.1 nM in the experiment on SKOV3 (Homo sapiens, SK-OV-3, 144 h); 1880 nM in the experiment on SKVLB (setting [3]). The “Fold resistance (ratio of IC50 J7-T3-1.6 to J774.2)” value in the experiment with J7-T3-1.6 is 127.8 fold; with J7-T3-1.6 (listed as vinblastine), “significant cross-resistance”. The “Fold resistance (ratio of IC50 A549-T12 to A549)” value in the experiment on A549-T12 (72 h) is 1.0 fold; with A549-T12 (72 h, listed as vinblastine), “no cross-resistance”. Further, in the experiment with SKOV3, the “IC50 (drug concentration that inhibits cell division by 50%)” value is recorded as “highest sensitivity”. Besides, in the experiment with SKVLB, the “Fold resistance (ratio of IC50, SKVLB and SKOV3)” value was 1,709.4 fold. In addition, the “Microtubule cytoskeleton / ability” value with A549-T12 cells [1] is given as “Neither discodermolide nor vinblastine was able to substitute for Taxol”. In addition, the Cell-cycle profile result in the experiment with A549-T12 cells [2] is reported as “mitotic block”. In the experiment with A549-T12 cells [2], the “Reversal” value is “irreversible”.
